Source: PubChem BioAssay AID1963428 (Molecular Pharmacology Branch, DTP, NCI, 2024)
pIC50: −log10 of the molar value.

System: 171881-019-R-J1-PDC complex spheroid growth, % test/control
Assay: Anticancer human tumor 171881-019-R-J1-PDC patient-derived invasive breast carcinoma cell line growth inhibition [Asc]
Settings: for pIC50: curve of first compound; for viability, T/C: stronger effect = lower value
Procedure, shortened: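 Tumor cells were grown as multicellular spheroids with stromal HUVEC and mesenchymal stem cells and treated singly or in combination. Concentrations fell in half-log steps from the clinical Cmax, or from 10 microM where none was known.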

[1] = second compound 0.1 µM, first compound 0.00316 µM
[2] = second compound 0.1 µM, first compound 0.01 µM
[3] = second compound 0.1 µM, first compound 0.0316 µM
[4] = second compound 0.1 µM, first compound 0.1 µM
[5] = second compound 0.1 µM, first compound 0.316 µM
[6] = second compound 0.1 µM, first compound 1 µM
[7] = second compound 0.316 µM, first compound 0.00316 µM
[8] = second compound 0.316 µM, first compound 0.01 µM
[9] = second compound 0.316 µM, first compound 0.0316 µM
[10] = second compound 0.316 µM, first compound 0.1 µM
[11] = second compound 0.316 µM, first compound 0.316 µM
[12] = second compound 0.316 µM, first compound 1 µM
[13] = second compound 1 µM, first compound 0.00316 µM
[14] = second compound 1 µM, first compound 0.01 µM
[15] = second compound 1 µM, first compound 0.0316 µM
[16] = second compound 1 µM, first compound 0.1 µM
[17] = second compound 1 µM, first compound 0.316 µM
[18] = second compound 1 µM, first compound 1 µM
[19] = second compound 3.16 µM, first compound 0.00316 µM
[20] = second compound 3.16 µM, first compound 0.01 µM
[21] = second compound 3.16 µM, first compound 0.0316 µM
[22] = second compound 3.16 µM, first compound 0.1 µM
[23] = second compound 3.16 µM, first compound 0.316 µM
[24] = second compound 3.16 µM, first compound 1 µM
[25] = second compound 10 µM, first compound 0.00316 µM
[26] = second compound 10 µM, first compound 0.01 µM
[27] = second compound 10 µM, first compound 0.0316 µM
[28] = second compound 10 µM, first compound 0.1 µM
[29] = second compound 10 µM, first compound 0.316 µM
[30] = second compound 10 µM, first compound 1 µM
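Wherever viability, T/C is given: spheroids exposed to compounds for 7 days.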

| Structure (SMILES) | pIC50 (second compound 0.1 µM) | pIC50 (second compound 0.316 µM) | pIC50 (second compound 1 µM) | pIC50 (second compound 3.16 µM) | pIC50 (second compound 10 µM) | viability, T/C [1] [%] | viability, T/C [2] [%] | viability, T/C [3] [%] | viability, T/C [4] [%] | viability, T/C [5] [%] | viability, T/C [6] [%] | viability, T/C [7] [%] | viability, T/C [9] [%] | viability, T/C [10] [%] | viability, T/C [15] [%] | viability, T/C [16] [%] | viability, T/C [21] [%] | viability, T/C [22] [%] | viability, T/C [27] [%] | viability, T/C [28] [%] | also measured |
| --- | --- | --- | --- | --- | --- | --- | --- | --- | --- | --- | --- | --- | --- | --- | --- | --- | --- | --- | --- | --- | --- |
| CCN1CCN(Cc2ccc(Nc3ncc(F)c(-c4cc(F)c5nc(C)n(C(C)C)c5c4)n3)nc2)CC1 + Cc1c(S(C)(=O)=O)c(-c2cc(F)cc(N3CCN(c4ccc(NS(=O)(=O)c5ccc(NC(CCN6CCC(C(=O)OCCCP(=O)(O)O)CC6)CSc6ccccc6)c(S(=O)(=O)C(F)(F)F)c5)cc4)CC3)c2)c(-c2ccc(Cl)cc2)n1C(C)C | < 6.00 | < 6.00 | < 6.00 | < 6.00 | < 6.00 | 105 | 118 | 119 | 111 | 118 | 146 | 142 | 149 | 139 | 157 | 172 | 189 | 184 | 213 | 192 | viability, T/C [8]: 145%; viability, T/C [11]: 178%; viability, T/C [12]: 188%; viability, T/C [13]: 125%; viability, T/C [14]: 149%; viability, T/C [17]: 188%; viability, T/C [18]: 200%; viability, T/C [19]: 191%; viability, T/C [20]: 190%; viability, T/C [23]: 188%; viability, T/C [24]: 185%; viability, T/C [25]: 199%; viability, T/C [26]: 215%; viability, T/C [29]: 187%; viability, T/C [30]: 166% |
| Cn1ncnc1[C@H]1c2n[nH]c(=O)c3cc(F)cc(c23)N[C@@H]1c1ccc(F)cc1 + Cc1c(S(C)(=O)=O)c(-c2cc(F)cc(N3CCN(c4ccc(NS(=O)(=O)c5ccc(NC(CCN6CCC(C(=O)OCCCP(=O)(O)O)CC6)CSc6ccccc6)c(S(=O)(=O)C(F)(F)F)c5)cc4)CC3)c2)c(-c2ccc(Cl)cc2)n1C(C)C | < 7.00 | < 7.00 | < 7.00 | < 7.00 | < 7.00 | 103 | 115 | 108 | 100 |  |  | 107 | 129 | 129 | 143 | 192 | 192 | 173 | 192 | 181 | viability, T/C (second compound 0.1 µM, first compound 0.000316 µM): 86.8%; viability, T/C (second compound 0.1 µM, first compound 0.001 µM): 108%; viability, T/C (second compound 0.316 µM, first compound 0.000316 µM): 111%; viability, T/C (second compound 0.316 µM, first compound 0.001 µM): 130%; viability, T/C [8]: 120%; viability, T/C (second compound 1 µM, first compound 0.000316 µM): 136%; viability, T/C (second compound 1 µM, first compound 0.001 µM): 145%; viability, T/C [13]: 123%; viability, T/C [14]: 159%; viability, T/C (second compound 3.16 µM, first compound 0.000316 µM): 168%; viability, T/C (second compound 3.16 µM, first compound 0.001 µM): 155%; viability, T/C [19]: 186%; viability, T/C [20]: 178%; viability, T/C (second compound 10 µM, first compound 0.000316 µM): 210%; viability, T/C (second compound 10 µM, first compound 0.001 µM): 203%; viability, T/C [25]: 214%; viability, T/C [26]: 208% |
| O=C(c1cc(Cc2n[nH]c(=O)c3ccccc23)ccc1F)N1CCN(C(=O)C2CC2)CC1 + Cc1c(S(C)(=O)=O)c(-c2cc(F)cc(N3CCN(c4ccc(NS(=O)(=O)c5ccc(NC(CCN6CCC(C(=O)OCCCP(=O)(O)O)CC6)CSc6ccccc6)c(S(=O)(=O)C(F)(F)F)c5)cc4)CC3)c2)c(-c2ccc(Cl)cc2)n1C(C)C | < 5.00 | < 5.00 | < 5.00 | < 5.00 | < 5.00 |  |  | 106 | 102 | 103 | 124 |  | 136 | 125 | 132 | 136 | 158 | 200 | 212 | 208 | viability, T/C (second compound 0.1 µM, first compound 3.16 µM): 102%; viability, T/C (second compound 0.1 µM, first compound 10 µM): 111%; viability, T/C [11]: 134%; viability, T/C [12]: 125%; viability, T/C (second compound 0.316 µM, first compound 3.16 µM): 127%; viability, T/C (second compound 0.316 µM, first compound 10 µM): 134%; viability, T/C [17]: 143%; viability, T/C [18]: 168%; viability, T/C (second compound 1 µM, first compound 3.16 µM): 169%; viability, T/C (second compound 1 µM, first compound 10 µM): 180%; viability, T/C [23]: 193%; viability, T/C [24]: 164%; viability, T/C (second compound 3.16 µM, first compound 3.16 µM): 197%; viability, T/C (second compound 3.16 µM, first compound 10 µM): 184%; viability, T/C [29]: 228%; viability, T/C [30]: 227%; viability, T/C (second compound 10 µM, first compound 3.16 µM): 209%; viability, T/C (second compound 10 µM, first compound 10 µM): 175% |
| O=C(c1ccc(F)c(F)c1Nc1ccc(I)cc1F)N1CC(O)([C@@H]2CCCCN2)C1 + Cc1c(S(C)(=O)=O)c(-c2cc(F)cc(N3CCN(c4ccc(NS(=O)(=O)c5ccc(NC(CCN6CCC(C(=O)OCCCP(=O)(O)O)CC6)CSc6ccccc6)c(S(=O)(=O)C(F)(F)F)c5)cc4)CC3)c2)c(-c2ccc(Cl)cc2)n1C(C)C | 6.68 | 6.79 | 6.90 | 7.06 | 6.97 | 98.9 | 110 | 222 | 97.6 | 25.8 | 18.8 | 109 | 186 | 75.9 | 158 | 59.2 | 115 | 44.8 | 118 | 54.9 | viability, T/C [8]: 194%; viability, T/C [11]: 18.7%; viability, T/C [12]: 12.3%; viability, T/C [13]: 136%; viability, T/C [14]: 193%; viability, T/C [17]: 13.7%; viability, T/C [18]: 6.11%; viability, T/C [19]: 156%; viability, T/C [20]: 182%; viability, T/C [23]: 8.8%; viability, T/C [24]: 3.61%; viability, T/C [25]: 175%; viability, T/C [26]: 174%; viability, T/C [29]: 12%; viability, T/C [30]: 3.48% |
